The results in this text go back to paper PMC10823475, “Design, Synthesis, and Evaluation of Inhibitors of Hedgehog Acyltransferase” (Journal of Medicinal Chemistry, 2024).

Series [1] is described as follows: MTS assay, cytotoxicity (72 h). It is filed as cell-based. Conditions: human, HEK293a SHH+ cells, 72 h; for CC50 at 72 h: read-out: MTS Assay (HEK293a SHH+) CC50 (CI95). The essentials: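 Cells plated at 5000/well, cultured 24 h, then exposed to analogues (0.14–100 μM final) in DMEM/10% FBS for 72 h. MTS/PMS added for 3 h at 37 °C and absorbance read at 490 nm; data normalised to DMSO vehicle and puromycin (2 μg/mL) wells, curves fitted with a variable-slope sigmoidal model.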
Background: Tetrazolium dyes change colour on reduction, which living cells bring about.

The target of a further series is T1, purified HHAT (Homo sapiens, UniProt Q5VTY9).
T1 construct: made in house
T1 sequence (Q5VTY9 whole entry): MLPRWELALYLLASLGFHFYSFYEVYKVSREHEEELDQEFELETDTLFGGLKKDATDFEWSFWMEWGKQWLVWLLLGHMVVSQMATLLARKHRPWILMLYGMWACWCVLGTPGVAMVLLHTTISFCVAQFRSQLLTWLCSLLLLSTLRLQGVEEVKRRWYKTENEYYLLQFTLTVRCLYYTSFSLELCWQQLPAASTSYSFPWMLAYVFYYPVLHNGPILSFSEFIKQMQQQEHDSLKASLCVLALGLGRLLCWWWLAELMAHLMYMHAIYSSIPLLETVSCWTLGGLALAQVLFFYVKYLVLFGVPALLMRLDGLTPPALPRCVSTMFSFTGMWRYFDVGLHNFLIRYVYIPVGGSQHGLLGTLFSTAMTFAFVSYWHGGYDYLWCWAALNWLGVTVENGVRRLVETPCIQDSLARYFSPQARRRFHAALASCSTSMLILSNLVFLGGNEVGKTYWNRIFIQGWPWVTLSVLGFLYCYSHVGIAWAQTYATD
The series can be described thus: Acyl-cLIP assay, inhibition of purified HHAT. It is filed as biochemical. The following applies: for LLEAcyl-cLIP: from Acyl-cLIP IC50 and clogDpH7.4; for fold more potent than analogues 19, 32, and 34: meta-methyl on 4-position aromatic ring; for IC50: purified HHAT, read-out: Acyl-cLIP Assay IC50 (CI95). The essentials:
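Fluorescence polarization of FAM-labelled SHH N-terminal peptide palmitoylated by DDM-solubilized purified recombinant HHAT with palmitoyl-CoA, pH 6.5 MES buffer, read over 30 min. Initial rates normalized to DMSO and no-enzyme controls; IC50 from variable-slope sigmoidal fit of 1:1 serial dilutions; single-point % inhibition at 50 and 25 μM.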

“And” between values parts separate entries of the source, which are not always exact repeats. Identical values can stand only once.

For the molecule `CCC(C)CNCC(=O)N1CCc2sccc2C1c1cccc(C)n1` (stereo not shown) [Compound 22], in series [1], the CC50 at 72 h was > 50 µM; the viability at 72 h, 12.5 µM amounted to 92 ± 1%; the viability at 72 h, 25 µM is 89 ± 3%. Besides, on purified HHAT, the inhibition at 25 µM is 96 ± 1%; the inhibition at 50 µM was 103 ± 1%; the LLEAcyl-cLIP amounted to 4.20; the “fold more potent than analogues 19, 32, and 34” value was 2–5 fold. In addition, the IC50 on purified HHAT was 2.58 µM.
On to `Cc1cccc(C2c3ccsc3CCN2C(=O)CNCC(C)C)n1` (stereo not shown) [Compound 24], for which, in series [1], the CC50 at 72 h is > 50 µM; the viability at 72 h, 12.5 µM came to 88 ± 3%; the viability at 72 h, 25 µM is 80 ± 3%. In addition, at purified HHAT, the inhibition at 25 µM came out at 91 ± 4%, the inhibition at 50 µM came to 95 ± 4%, the LLEAcyl-cLIP is 4.90 and the IC50 amounted to 1.33 µM.
`CCC(C)CNCC(=O)N1CCc2sccc2C1c1cccc(C)c1` (stereo not shown) [Compound 17]: in series [1], the CC50 at 72 h amounted to 40.7 µM; the viability at 72 h, 12.5 µM worked out at 42 ± 3%; the viability at 72 h, 25 µM is 55 ± 1%. Also, on purified HHAT, the inhibition at 25 µM stood at 93 ± 7%; the inhibition at 50 µM was found to be 88 ± 2%; the LLEAcyl-cLIP was determined as 2.91; the “fold more potent than analogues 19, 32, and 34” value is listed as 2–5 fold. The IC50 on purified HHAT was found to be 2.13 µM.
Turning to `C=CCNCC(=O)N1CCc2sccc2C1COc1ccc(Cl)cc1` (stereo not shown) [Compound 2], in series [1], the CC50 at 72 h came to 35.9 µM; the viability at 72 h, 12.5 µM worked out at 56 ± 3%; the viability at 72 h, 25 µM was 50 ± 2%. For the same molecule, on purified HHAT, the inhibition at 25 µM amounted to 73 ± 9%, the inhibition at 50 µM worked out at 87 ± 2%, the LLEAcyl-cLIP is 2.48 and the IC50 turned out to be 5.76 µM.
In the case of `Cc1cccc([C@H]2c3ccsc3CCN2C(=O)CNCC(C)C)n1` [Compound 30], in series [1], the CC50 at 72 h is > 50 µM; the viability at 72 h, 12.5 µM is 101 ± 6%; the viability at 72 h, 25 µM was found to be 98 ± 5%. On purified HHAT, the inhibition at 25 µM worked out at 92 ± 4%, the inhibition at 50 µM came to 95 ± 4%, the LLEAcyl-cLIP came to 5.14 and the IC50 is < 10 µM. Moreover, the “fold increase in potency compared to racemate” value on purified HHAT (enantiomer vs racemate (29 vs 21, 30 vs 24, 43 vs 39)) is 2 fold.
Regarding `Cc1cccc([C@@H]2c3ccsc3CCN2C(=O)CNCC(C)C)n1` [Compound 28], in series [1], the CC50 at 72 h was > 100 µM; the viability at 72 h, 12.5 µM worked out at 108 ± 7%; the viability at 72 h, 25 µM worked out at 105 ± 4%. At purified HHAT, the “HHAT inhibition in the acyl-cLIP assay” value is given as “no inhibitory activity”, the inhibition at 25 µM came to 13 ± 4%, the inhibition at 50 µM turned out to be 18 ± 2% and the IC50 was > 100 µM.
On to `CC(=O)N1CCc2sccc2C1c1ccccc1` (stereo not shown) [Compound 5], for which, in series [1], the CC50 at 72 h was 13.9 µM; the viability at 72 h, 12.5 µM is 73 ± 2%; the viability at 72 h, 25 µM was determined as 76 ± 4%. Besides, at purified HHAT, the inhibition at 25 µM amounted to 66 ± 7%; the inhibition at 50 µM turned out to be 85 ± 5%; the LLEAcyl-cLIP was determined as 2.39; the IC50 was 5.3 µM and 5.34 µM.

Usually CC50 stands for the concentration at which the toxic effect on the cells reaches its halfway point. What is called viability is a read-out of living cells in per cent, often relative to untreated cells. What is called inhibition is the relative decrease from the control value, in per cent. One may read the IC50 as the point on the concentration scale where inhibition reaches its midpoint.
